# Laboratory results as given in US6274715A, “Tricyclic erythromycin derivatives” (priority 1997, dated 2001).
# How the values were obtained:
# Format in all cases: cell-based
# [1] = tested on: STAPHYLOCOCCUS AUREUS ATCC 6538P; assay: In vitro antibacterial activity, MIC, BHI agar dilution; settings: S. aureus ATCC 6538P, 35-37° C., 20 to 24 hours, unit assumed
# STR[…] 508 = assay: as above; settings: S. agalactiae CMX 508, unit assumed
# In short: (§1)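 MIC was read visually as the lowest drug level with no growth, a slight haze or sparsely isolated colonies relative to a compound-free growth control. Organisms were spotted at 1:100 dilution (1:10 for slow-growing strains) onto Brain Heart Infusion agar containing serial compound dilutions and incubated 20 to 24 hours at 35-37° C.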
# EN[…] ATCC 8043 = assay: as above; settings: E. faecium ATCC 8043, unit assumed
# In short: as §1
# M[…] ATCC 4698 = assay: as above; settings: M. luteus ATCC 4698, unit assumed
# In short: as §1
# M[…] ATCC 9341 = assay: as above; settings: M. luteus ATCC 9341, unit assumed
# In short: as §1
# ESCHERICHIA COLI SS = assay: as above; settings: E. coli SS, unit assumed
# [2] = tested on: PSEUDOMONAS AERUGINOSA K799/WT; assay: as above; settings: P. aeruginosa K799/WT, unit assumed
# [3] = tested on: STREPTOCOCCUS PYOGENES EES61; assay: as above; settings: S. pyogenes EES61, unit assumed
# ESCHERICHIA COLI DC-2 = assay: as above; settings: E. coli DC-2, unit assumed
# [4] = tested on: STREPTOCOCCUS BOVIS A-5169; assay: as above; settings: S. bovis A-5169, unit assumed
# [5] = tested on: STAPHYLOCOCCUS EPIDERMIDIS 3519; settings: S. epidermidis 3519; BHI agar; unit assumed
# [6] = tested on: STAPHYLOCOCCUS AUREUS CMX 553; assay: In vitro antibacterial activity, MIC, BHI agar dilution; settings: S. aureus CMX 553, unit assumed
# [7] = tested on: PSEUDOMONAS AERUGINOSA DPHD-2862; assay: as above; settings: P. aeruginosa DPHD-2862, unit assumed
# [8] = tested on: STAPHYLOCOCCUS AUREUS A5177; assay: as above; settings: S. aureus A5177, unit assumed
# [9] = tested on: ENTEROBACTER AEROGENES ATCC 13048; assay: as above; settings: E. aerogenes ATCC 13048, unit assumed
# ESCHERICHIA COLI JUHL = settings: E. coli JUHL; BHI agar; unit assumed
# [10] = tested on: PSEUDOMONAS AERUGINOSA 5007; assay: In vitro antibacterial activity, MIC, BHI agar dilution; settings: P. aeruginosa 5007, unit assumed
# [11] = tested on: STAPHYLOCOCCUS AUREUS CMX 642A; assay: as above; settings: S. aureus CMX 642A, unit assumed
# [12] = tested on: PSEUDOMONAS AERUGINOSA BMH10; assay: as above; settings: P. aeruginosa BMH10, unit assumed
# [13] = tested on: PSEUDOMONAS AERUGINOSA K799/61; assay: as above; settings: P. aeruginosa K799/61, unit assumed
# [14] = tested on: STAPHYLOCOCCUS AUREUS A-5278; assay: as above; settings: S. aureus A-5278, unit assumed
# CANDIDA ALBICANS CCH 442 = assay: as above; settings: C. albicans CCH 442, unit assumed
# ESCHERICHIA COLI KNK 437 = settings: E. coli KNK 437; BHI agar; unit assumed
# ESCHERICHIA COLI H560 = assay: In vitro antibacterial activity, MIC, BHI agar dilution; settings: E. coli H560, unit assumed
# [15] = tested on: STAPHYLOCOCCUS AUREUS NCTC10649M; assay: as above; settings: S. aureus NCTC10649M, unit assumed
# [16] = tested on: PSEUDOMONAS AERUGINOSA DPHD-5263; assay: as above; settings: P. aeruginosa DPHD-5263, unit assumed
# [17] = tested on: MYCOBACTERIUM SMEGMATIS ATCC 114; assay: as above; settings: M. smegmatis ATCC 114, unit assumed
# [18] = tested on: STREPTOCOCCUS PYOGENES 930; assay: as above; settings: S. pyogenes 930, unit assumed
# [19] = tested on: STREPTOCOCCUS PYOGENES PIU 2548; assay: as above; settings: S. pyogenes PIU 2548, unit assumed
# PSEUDOMONAS CEPACIA 296I = assay: as above; settings: P. cepacia 296I, unit assumed
# [20] = tested on: STAPHYLOCOCCUS AUREUS 1775; assay: as above; settings: S. aureus 1775, unit assumed
# [21] = tested on: PROVIDENCIA STUARTII CMX 640; settings: P. stuartii CMX 640; BHI agar; unit assumed
# [22] = tested on: KLEBSIELLA PNEUMONIAE ATCC 8045; assay: In vitro antibacterial activity, MIC, BHI agar dilution; settings: K. pneumoniae ATCC 8045, unit assumed
SMILES,MIC [1] [µg/mL],MIC (STR[…] 508) [µg/mL],MIC (EN[…] ATCC 8043) [µg/mL],MIC (M[…] ATCC 4698) [µg/mL],MIC (M[…] ATCC 9341) [µg/mL],MIC (ESCHERICHIA COLI SS) [µg/mL],MIC [2] [µg/mL],MIC [3] [µg/mL],MIC (ESCHERICHIA COLI DC-2) [µg/mL],MIC [4] [µg/mL],MIC [5] [µg/mL],MIC [6] [µg/mL],MIC [7] [µg/mL],MIC [8] [µg/mL],MIC [9] [µg/mL],MIC (ESCHERICHIA COLI JUHL) [µg/mL],MIC [10] [µg/mL],MIC [11] [µg/mL],MIC [12] [µg/mL],MIC [13] [µg/mL],other results
CC[C@H]1OC(=O)[C@H](C)C(=O)[C@H](C)[C@@H](O[C@@H]2O[C@H](C)C[C@H](N(C)C)[C@H]2O)[C@](C)(OC)C[C@@H](C)C2=NC3CN(CCc4ccc(N)cc4)CC3N3C(=O)O[C@@]1(C)[C@H]3[C@H]2C (stereo partly drawn) [Example 121],0.78,0.02,0.05,0.2,0.05,0.2,> 100,0.02,50,0.01,0.78,0.78,> 100,0.78,100,50,> 100,0.78,100,0.39,MIC [14]: > 100 µg/mL; MIC (CANDIDA ALBICANS CCH 442): > 100 µg/mL; MIC (ESCHERICHIA COLI KNK 437): 50 µg/mL; MIC (ESCHERICHIA COLI H560): 25 µg/mL; MIC [15]: 0.78 µg/mL; MIC [16]: > 100 µg/mL; MIC [17]: 6.2 µg/mL; MIC [18]: > 100 µg/mL; MIC [19]: 0.78 µg/mL; MIC (PSEUDOMONAS CEPACIA 296I): 100 µg/mL; MIC [20]: > 100 µg/mL; MIC [21]: > 100 µg/mL; MIC [22]: 100 µg/mL
CC[C@H]1OC(=O)[C@H](C)C(=O)[C@H](C)[C@@H](O[C@@H]2O[C@H](C)C[C@H](N(C)C)[C@H]2O)[C@](C)(OC)C[C@@H](C)C2=NC3CN(CCc4ccc(NC(C)=O)cc4)CC3N3C(=O)O[C@@]1(C)[C@H]3[C@H]2C (stereo partly drawn) [Example 122],0.39,0.1,0.78,1.56,0.05,0.78,> 100,0.02,100,0.02,0.78,0.78,> 100,0.39,100,100,> 100,0.78,> 100,0.78,MIC [14]: > 100 µg/mL; MIC (CANDIDA ALBICANS CCH 442): > 100 µg/mL; MIC (ESCHERICHIA COLI KNK 437): 50 µg/mL; MIC (ESCHERICHIA COLI H560): 50 µg/mL; MIC [15]: 0.78 µg/mL; MIC [16]: > 100 µg/mL; MIC [17]: 25 µg/mL; MIC [18]: 100 µg/mL; MIC [19]: 6.2 µg/mL; MIC (PSEUDOMONAS CEPACIA 296I): > 100 µg/mL; MIC [20]: > 100 µg/mL; MIC [21]: > 100 µg/mL; MIC [22]: > 100 µg/mL
CC[C@H]1OC(=O)[C@H](C)C(=O)[C@H](C)[C@@H](O[C@@H]2O[C@H](C)C[C@H](N(C)C)[C@H]2O)[C@](C)(OC)C[C@@H](C)C2=NC3CN(C=O)CC3N3C(=O)O[C@@]1(C)[C@H]3[C@H]2C (stereo partly drawn) [Example 124],0.78,0.1,0.2,0.39,0.1,0.78,100,0.02,100,0.05,3.1,0.78,> 100,1.56,> 100,100,> 100,0.78,> 100,0.78,MIC [14]: > 100 µg/mL; MIC (CANDIDA ALBICANS CCH 442): > 100 µg/mL; MIC (ESCHERICHIA COLI KNK 437): 100 µg/mL; MIC (ESCHERICHIA COLI H560): 50 µg/mL; MIC [15]: 0.78 µg/mL; MIC [16]: > 100 µg/mL; MIC [17]: 25 µg/mL; MIC [18]: > 100 µg/mL; MIC [19]: 3.1 µg/mL; MIC (PSEUDOMONAS CEPACIA 296I): > 100 µg/mL; MIC [20]: > 100 µg/mL; MIC [21]: > 100 µg/mL; MIC [22]: > 100 µg/mL
